Among the data in US9745311B2, “Substituted pyrrolo[2,3-b]pyrazines as FGFR inhibitors” (Incyte Corporation, priority 2012, dated 2017) are IC50 values, retold here.

Molecules are shown by their SMILES. Like-named read-outs stand apart in the source and are kept apart here.

One assay addresses FGFR1 (Homo sapiens (Human), UniProt P11362). Put plainly: FGFR Enzymatic Assay (FGFR1). To be noted: enzyme 0.02 nM, ATP 210 μM. The format is biochemical.
A further assay has as its target FGFR3 enzyme (Millipore) (Homo sapiens (Human), UniProt P22607). To be noted: read-out: FGFR3 IC50, ATP 140 μM.
A further assay deals with FGFR2 (Homo sapiens (Human), UniProt P21802). As to the kind of experiment: FGFR Enzymatic Assay (FGFR2).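 Also: FRET read-out of peptide phosphorylation by the purified kinase, with enzyme-free blank and uninhibited enzyme as controls, potency from a variable-slope sigmoidal dose-response fit.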 The class given is biochemical. To be noted: enzyme 0.01 nM, ATP 100 μM; read-out: FGFR2 IC50.
Sequence of FGFR2 (P21802 22-821): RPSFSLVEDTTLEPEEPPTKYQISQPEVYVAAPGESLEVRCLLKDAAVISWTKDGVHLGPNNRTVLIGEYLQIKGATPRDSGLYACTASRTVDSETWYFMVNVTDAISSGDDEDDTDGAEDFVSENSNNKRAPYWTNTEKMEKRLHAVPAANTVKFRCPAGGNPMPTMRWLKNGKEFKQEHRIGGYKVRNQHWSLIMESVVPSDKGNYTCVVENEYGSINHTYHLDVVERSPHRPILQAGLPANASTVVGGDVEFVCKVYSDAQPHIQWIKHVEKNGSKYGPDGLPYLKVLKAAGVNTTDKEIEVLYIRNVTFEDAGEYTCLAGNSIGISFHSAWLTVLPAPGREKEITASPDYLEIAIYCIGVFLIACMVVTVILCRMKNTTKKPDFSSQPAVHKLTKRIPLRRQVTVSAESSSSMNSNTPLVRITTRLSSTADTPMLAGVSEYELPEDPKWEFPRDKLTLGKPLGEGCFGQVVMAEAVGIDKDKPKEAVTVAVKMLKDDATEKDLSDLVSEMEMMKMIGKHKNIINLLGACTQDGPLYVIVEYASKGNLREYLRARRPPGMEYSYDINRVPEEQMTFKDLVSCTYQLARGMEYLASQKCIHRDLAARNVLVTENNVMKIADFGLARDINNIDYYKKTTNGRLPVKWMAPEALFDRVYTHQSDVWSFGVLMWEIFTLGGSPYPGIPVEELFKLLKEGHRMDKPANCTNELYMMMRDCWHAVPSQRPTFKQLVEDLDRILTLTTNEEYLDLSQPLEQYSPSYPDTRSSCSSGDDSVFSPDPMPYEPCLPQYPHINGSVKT

Sequence of FGFR1 (P11362 22-822): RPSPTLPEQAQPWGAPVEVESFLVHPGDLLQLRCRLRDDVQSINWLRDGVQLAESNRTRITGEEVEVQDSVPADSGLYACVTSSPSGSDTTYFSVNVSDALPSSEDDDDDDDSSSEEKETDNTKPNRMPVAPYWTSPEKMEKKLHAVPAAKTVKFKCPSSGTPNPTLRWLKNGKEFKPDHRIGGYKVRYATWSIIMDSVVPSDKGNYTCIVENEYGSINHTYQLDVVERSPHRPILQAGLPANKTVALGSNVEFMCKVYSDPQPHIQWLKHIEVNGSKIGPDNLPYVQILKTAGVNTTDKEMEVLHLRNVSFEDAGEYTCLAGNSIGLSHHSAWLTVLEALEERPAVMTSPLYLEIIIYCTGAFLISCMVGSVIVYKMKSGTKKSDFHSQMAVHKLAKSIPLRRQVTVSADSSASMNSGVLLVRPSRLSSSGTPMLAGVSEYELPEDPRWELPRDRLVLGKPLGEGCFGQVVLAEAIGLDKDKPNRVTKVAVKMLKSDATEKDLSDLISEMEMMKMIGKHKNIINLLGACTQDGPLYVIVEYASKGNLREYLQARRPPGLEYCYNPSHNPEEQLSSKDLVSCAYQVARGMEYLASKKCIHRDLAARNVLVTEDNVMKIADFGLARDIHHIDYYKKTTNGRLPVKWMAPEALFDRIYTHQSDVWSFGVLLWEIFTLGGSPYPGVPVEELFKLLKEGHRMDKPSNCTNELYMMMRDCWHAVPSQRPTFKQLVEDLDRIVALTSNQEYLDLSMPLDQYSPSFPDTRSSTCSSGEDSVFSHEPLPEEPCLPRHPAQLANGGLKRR
Sequence of FGFR3 enzyme (Millipore) (P22607 23-806): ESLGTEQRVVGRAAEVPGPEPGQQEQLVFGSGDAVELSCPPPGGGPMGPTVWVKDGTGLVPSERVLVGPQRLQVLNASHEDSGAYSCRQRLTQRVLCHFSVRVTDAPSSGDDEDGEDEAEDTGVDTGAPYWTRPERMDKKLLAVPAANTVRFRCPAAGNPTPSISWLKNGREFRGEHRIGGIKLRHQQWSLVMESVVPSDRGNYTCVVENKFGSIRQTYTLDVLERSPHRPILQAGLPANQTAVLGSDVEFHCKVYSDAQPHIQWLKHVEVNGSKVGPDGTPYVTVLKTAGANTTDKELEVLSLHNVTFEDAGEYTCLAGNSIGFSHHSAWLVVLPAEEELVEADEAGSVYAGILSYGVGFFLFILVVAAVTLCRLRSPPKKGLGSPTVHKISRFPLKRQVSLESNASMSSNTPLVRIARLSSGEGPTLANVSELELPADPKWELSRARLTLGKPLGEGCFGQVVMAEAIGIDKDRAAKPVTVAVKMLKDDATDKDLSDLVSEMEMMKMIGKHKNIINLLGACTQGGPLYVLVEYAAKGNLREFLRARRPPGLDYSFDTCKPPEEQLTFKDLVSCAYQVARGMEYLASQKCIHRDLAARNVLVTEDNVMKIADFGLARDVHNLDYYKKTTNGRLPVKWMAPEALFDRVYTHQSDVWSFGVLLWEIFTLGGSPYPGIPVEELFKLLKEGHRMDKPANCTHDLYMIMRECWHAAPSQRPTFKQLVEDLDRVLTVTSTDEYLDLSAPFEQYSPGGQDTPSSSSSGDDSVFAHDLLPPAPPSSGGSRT
Experimental for FGFR2: (§1) The inhibitor potency of compounds was measured in an enzyme assay that measures peptide phosphorylation using FRET measurements to detect product formation. Inhibitors were serially diluted in DMSO and a volume of 0.5 μL was transferred to the wells of a 384-well plate. For FGFR3, a 10 μL volume of FGFR3 enzyme (Millipore) diluted in assay buffer (50 mM HEPES, 10 mM MgCl2, 1 mM EGTA, 0.01% Tween-20, 5 mM DTT, pH 7.5) was added to the plate and pre-incubated for 5-10 minutes. Appropriate controls (enzyme blank and enzyme with no inhibitor) were included on the plate. […] The plate was incubated at 25° C. for 1 hr. […] The plate was allowed to equilibrate for ˜1 hr before scanning the wells on a PheraStar plate reader.
(§2) GraphPad prism3 was used to analyze the data. The IC50 values were derived by fitting the data to the equation for a sigmoidal dose-response with a variable slope. Y=Bottom+(Top−Bottom)/(1+10^((Log IC50−X)*HillSlope)) where X is the logarithm of concentration and Y is the response.
Experimental for FGFR3 enzyme (Millipore): as §1, §2

Take `COc1cc(CCc2cnc3[nH]c(-c4ccc(N5CCN(C)CC5)cc4)c(C#N)c3n2)cc(OC)c1` [Example 45, 2-[2-(3,5-dimethoxyphenyl)ethyl]-6-[4-(4-methylpiperazin-1-yl)phenyl]-5H-pyrrolo[2,3-b]pyrazine-7-carbonitrile]: the IC50 at FGFR1, at FGFR3 enzyme (Millipore) (class symbols) and at FGFR2 was below 100 nM each time.

Turning to `COc1cc(CCc2cnc3[nH]c(-c4ccc(N5CCN(C)CC5)cc4)c(Br)c3n2)cc(OC)c1` [Example 46, 7-bromo-2-[2-(3,5-dimethoxyphenyl)ethyl]-6-[4-(4-methylpiperazin-1-yl)phenyl]-5H-pyrrolo[2,3-b]pyrazine], the IC50 at FGFR1, at FGFR3 enzyme (Millipore) (class symbols) and on FGFR2 was below 100 nM in each case.

Regarding `COc1cc(CCc2cnc3[nH]c(-c4ccc(N5CCN(C)CC5)cc4)c(Cl)c3n2)cc(OC)c1` [Example 47, 7-chloro-2-[2-(3,5-dimethoxyphenyl)ethyl]-6-[4-(4-methylpiperazin-1-yl)phenyl]-5H-pyrrolo[2,3-b]pyrazine], the IC50 against FGFR1, at FGFR3 enzyme (Millipore) (class symbols) and on FGFR2 was below 100 nM each time.

On to `COc1cc(CCc2cnc3[nH]c(-c4ccc(N5CCN(C)CC5)cc4)cc3n2)c(Cl)c(OC)c1` [Example 48, 2-[2-(2-chloro-3,5-dimethoxyphenyl)ethyl]-6-[4-(4-methylpiperazin-1-yl)phenyl]-5H-pyrrolo[2,3-b]pyrazine], for which the IC50 against FGFR1, at FGFR3 enzyme (Millipore) (class symbols) and on FGFR2 was below 100 nM in each case.

Turning to `COc1cc(OC)c(Cl)c(CCc2cnc3[nH]c(-c4ccc(N5CCN(C)CC5)cc4)cc3n2)c1Cl` [Example 49, 2-[2-(2,6-dichloro-3,5-dimethoxyphenyl)ethyl]-6-[4-(4-methylpiperazin-1-yl)phenyl]-5H-pyrrolo[2,3-b]pyrazine], the IC50 at FGFR1, on FGFR3 enzyme (Millipore) (class symbols) and at FGFR2 was below 100 nM throughout.

With `COc1cc(CCc2cnc3[nH]c(-c4ccc(N5CCN(C)CC5)cc4)c(C)c3n2)cc(OC)c1` [Example 51, 2-[2-(3,5-dimethoxyphenyl)ethyl]-7-methyl-6-[4-(4-methylpiperazin-1-yl)phenyl]-5H-pyrrolo[2,3-b]pyrazine], the IC50 against FGFR1, at FGFR3 enzyme (Millipore) (class symbols) and on FGFR2 was below 100 nM each time.

For `CCc1c(-c2ccc(N3CCN(C)CC3)cc2)[nH]c2ncc(CCc3cc(OC)cc(OC)c3)nc12` [Example 52, 2-[2-(3,5-dimethoxyphenyl)ethyl]-7-ethyl-6-[4-(4-methylpiperazin-1-yl)phenyl]-5H-pyrrolo[2,3-b]pyrazine], the IC50 at FGFR1, at FGFR3 enzyme (Millipore) (class symbols) and at FGFR2 was below 100 nM each time.

In the case of `COc1cc(CCc2cnc3[nH]c(-c4ccc(C(=O)NC(C)C)c(Cl)c4)cc3n2)cc(OC)c1` [Example 53, 2-Chloro-4-(2-(3,5-dimethoxyphenethyl)-5H-pyrrolo[2,3-b]pyrazin-6-yl)-N-isopropylbenzamide], the IC50 against FGFR1, on FGFR3 enzyme (Millipore) (class symbols) and at FGFR2 was below 100 nM throughout.

`COc1cc(CCc2cnc3[nH]c(-c4ccc(C(=O)N(C)C)c(Cl)c4)cc3n2)cc(OC)c1` [Example 56, 2-Chloro-4-(2-(3,5-dimethoxyphenethyl)-5H-pyrrolo[2,3-b]pyrazin-6-yl)-N,N-dimethylbenzamide]: the IC50 at FGFR1, at FGFR3 enzyme (Millipore) (class symbols) and at FGFR2 was below 100 nM each time.

As for `CNC(=O)c1ccc(-c2cc3nc(CCc4cc(OC)cc(OC)c4)cnc3[nH]2)cc1F` [Example 57, 4-(2-(3,5-Dimethoxyphenethyl)-5H-pyrrolo[2,3-b]pyrazin-6-yl)-2-fluoro-N-methylbenzamide], the IC50 against FGFR1, on FGFR3 enzyme (Millipore) (class symbols) and on FGFR2 was below 100 nM in each case.

As to `COc1cc(CCc2cnc3[nH]c(-c4ccc5c(cnn5C)c4)cc3n2)cc(OC)c1` [Example 62, 2-(3,5-Dimethoxyphenethyl)-6-(1-methyl-1H-indazol-5-yl)-5H-pyrrolo[2,3-b]pyrazine], the IC50 against FGFR1, on FGFR3 enzyme (Millipore) (class symbols) and on FGFR2 was below 100 nM in each case.

For the compound `COc1cc(CCc2cnc3[nH]c(-c4ccnc(N5CCNCC5)c4)cc3n2)cc(OC)c1` [Example 64, 2-(3,5-Dimethoxyphenethyl)-6-(2-(piperazin-1-yl)pyridin-4-yl)-5H-pyrrolo[2,3-b]pyrazine], the IC50 on FGFR1, at FGFR3 enzyme (Millipore) (class symbols) and on FGFR2 was below 100 nM each time.

Take `COc1cc(CCc2cnc3[nH]c(-c4cnc5nccnc5c4)cc3n2)cc(OC)c1` [Example 66, 7-(2-(3,5-Dimethoxyphenethyl)-5H-pyrrolo[2,3-b]pyrazin-6-yl)pyrido[2,3-b]pyrazine]: the IC50 (in general, the point on the concentration scale where inhibition reaches its midpoint) at FGFR1 was below 100 nM; on FGFR3 enzyme (Millipore) (numeric bounds) it was above 2000 nM; at FGFR2 it was below 100 nM.

Take `COc1cc(CCc2cnc3[nH]c(-c4ccc(N5CCN(CCO)CC5)cc4)cc3n2)cc(OC)c1` [Example 71, 2-(4-(4-(2-(3,5-Dimethoxyphenethyl)-5H-pyrrolo[2,3-b]pyrazin-6-yl)phenyl)piperazin-1-yl)ethanol]: the IC50 on FGFR1, on FGFR3 enzyme (Millipore) (class symbols) and on FGFR2 was below 100 nM throughout.

Consider `CNC(=O)c1cc(-c2cc3nc(CCc4cc(OC)cc(OC)c4)cnc3[nH]2)ccn1` [Example 73, 4-(2-(3,5-Dimethoxyphenethyl)-5H-pyrrolo[2,3-b]pyrazin-6-yl)-N-methylpicolinamide], for which the IC50 at FGFR1, at FGFR3 enzyme (Millipore) (class symbols) and at FGFR2 was below 100 nM each time.

As for `COc1cc(CCc2cnc3[nH]c(-c4ccc(N5CCN(C)CC5=O)cc4)cc3n2)cc(OC)c1` [Example 76, 1-(4-(2-(3,5-Dimethoxyphenethyl)-5H-pyrrolo[2,3-b]pyrazin-6-yl)phenyl)-4-methylpiperazin-2-one], the IC50 on FGFR1, on FGFR3 enzyme (Millipore) (class symbols) and at FGFR2 was below 100 nM in each case.

`COc1cc(CCc2cnc3[nH]c(-c4ccc(N5CCC(O)CC5)cc4)cc3n2)cc(OC)c1` [Example 77, 1-(4-(2-(3,5-Dimethoxyphenethyl)-5H-pyrrolo[2,3-b]pyrazin-6-yl)phenyl)piperidin-4-ol]: the IC50 on FGFR1, on FGFR3 enzyme (Millipore) (class symbols) and at FGFR2 was below 100 nM throughout.

`COc1cc(CCc2cnc3[nH]c(-c4cccc(N5CCNCC5)c4)cc3n2)cc(OC)c1` [Example 78, 2-(3,5-Dimethoxyphenethyl)-6-(3-(piperazin-1-yl)phenyl)-5H-pyrrolo[2,3-b]pyrazine]: the IC50 on FGFR1, at FGFR3 enzyme (Millipore) (class symbols) and at FGFR2 was below 100 nM in each case.

For `COc1cc(CCc2cnc3[nH]c(-c4cccc(N5CCN(C)CC5)c4)cc3n2)cc(OC)c1` [Example 79, 2-(3,5-Dimethoxyphenethyl)-6-(3-(4-methylpiperazin-1-yl)phenyl)-5H-pyrrolo[2,3-b]pyrazine], the IC50 at FGFR1, at FGFR3 enzyme (Millipore) (class symbols) and at FGFR2 was below 100 nM each time.

As for `COc1cc(CCc2cnc3[nH]c(-c4ccc5c(c4)CC(=O)N5)cc3n2)cc(OC)c1` [Example 80, 5-(2-(3,5-Dimethoxyphenethyl)-5H-pyrrolo[2,3-b]pyrazin-6-yl)indolin-2-one], the IC50 on FGFR1, on FGFR3 enzyme (Millipore) (class symbols) and at FGFR2 was below 100 nM in each case.

For `COc1cc(CCc2cnc3[nH]c(-c4ccc(N5CCN(C)C(=O)C5)cc4)cc3n2)cc(OC)c1` [Example 81, 4-(4-(2-(3,5-Dimethoxyphenethyl)-5H-pyrrolo[2,3-b]pyrazin-6-yl)phenyl)-1-methylpiperazin-2-one], the IC50 on FGFR1, on FGFR3 enzyme (Millipore) (class symbols) and on FGFR2 was below 100 nM each time.

As to `COc1cc(CCc2cnc3[nH]c(-c4ccc(N5CCN(C)CC5)cc4)cc3n2)c(F)c(OC)c1` [Example 82, 2-(2-Fluoro-3,5-dimethoxyphenethyl)-6-(4-(4-methylpiperazin-1-yl)phenyl)-5H-pyrrolo[2,3-b]pyrazine], the IC50 at FGFR1, at FGFR3 enzyme (Millipore) (class symbols) and on FGFR2 was below 100 nM in each case.

For `COc1cc(OC)c(F)c(CCc2cnc3[nH]c(-c4cn[nH]c4C)cc3n2)c1F` [Example 83, 2-[2-(2,6-difluoro-3,5-dimethoxyphenyl)ethyl]-6-(5-methyl-1H-pyrazol-4-yl)-5H-pyrrolo[2,3-b]pyrazine], the IC50 on FGFR1, on FGFR3 enzyme (Millipore) (class symbols) and on FGFR2 was below 100 nM in each case.

Consider `COc1cc(OC)c(F)c(CCc2cnc3[nH]c(-c4cnn(C)c4)cc3n2)c1F` [Example 84, 2-(2,6-difluoro-3,5-dimethoxyphenethyl)-6-(1-methyl-1H-pyrazol-4-yl)-5H-pyrrolo[2,3-b]pyrazine], for which the IC50 on FGFR1, at FGFR3 enzyme (Millipore) (class symbols) and at FGFR2 was below 100 nM each time.

As to `COc1cc(OC)c(F)c(CCc2cnc3[nH]c(-c4ccccc4C#N)cc3n2)c1F` [Example 85, 2-(2-(2,6-difluoro-3,5-dimethoxyphenethyl)-5H-pyrrolo[2,3-b]pyrazin-6-yl)benzonitrile], the IC50 on FGFR1, on FGFR3 enzyme (Millipore) (class symbols) and at FGFR2 was below 100 nM throughout.

As to `COc1cc(OC)c(F)c(CCc2cnc3[nH]c(-c4cccnc4OC)cc3n2)c1F` [Example 86, 2-(2,6-difluoro-3,5-dimethoxyphenethyl)-6-(2-methoxypyridin-3-yl)-5H-pyrrolo[2,3-b]pyrazine], the IC50 on FGFR1, at FGFR3 enzyme (Millipore) (class symbols) and on FGFR2 was below 100 nM each time.

With `COc1cc(OC)c(F)c(CCc2cnc3[nH]c(-c4cnn(CCN(C)C)c4)cc3n2)c1F` [Example 87, 2-(4-(2-(2,6-difluoro-3,5-dimethoxyphenethyl)-5H-pyrrolo[2,3-b]pyrazin-6-yl)-1H-pyrazol-1-yl)-N,N-dimethylethanamine], the IC50 on FGFR1, at FGFR3 enzyme (Millipore) (class symbols) and on FGFR2 was below 100 nM each time.
